Where “and” joins values, the source holds several entries; their conditions need not be identical. Equal entries are not always repeated.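 All cell lines were grown in 96-well plates and treated with compound for 48 hours. The concentration for 50% growth inhibition is given as GI50. At the TGI there is no net growth.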
System: MDA-MB-468 breast
Experiment: NCI-60 cell line screen, 48 h

SMILES	GI50	TGI
N#Cc1c(-c2ccccc2)nc(SCC2CO2)nc1N1CCOCC1 (configuration not stated)	4.15 µM	> 68.4 µM
F	4500 µM	> 6870 µM
CC1(C)N=C(N)N=C(N)N1c1cccc(CCCCc2cccc(S(=O)(=O)F)c2)c1	0.748 µM	26.4 µM
C=CC[n+]1c(/C=C/C=C2\N(C)c3ccccc3C2(C)C)sc2ccc(OC)cc21	0.0297 µM	1.05 µM
COc1ccc(C2CC(c3cc(OC)c(OC)c(OC)c3)=NO2)cc1OCCCCOc1cc2c(cc1OC)C(=O)N1CCC[C@H]1C=N2 (some centres not stated)	1.34 µM	2.97 µM
CCN(CC)CCOCC[C@H]1CC[C@H]2[C@@H]3[C@H](C)Cc4cc(OS(N)(=O)=O)ccc4[C@H]3CC[C@]12C	0.259 µM	1.36 µM
CCN1CCN(Cc2ccc(-c3cc4c(N[C@H](C)c5ccccc5)ncnc4[nH]3)cc2)CC1	0.0202 µM and 0.0419 µM	0.286 µM and 0.481 µM
Cc1ccc([N+](=O)[O-])cc1NC(=O)Nc1cccc(F)c1	3.6 µM	24.7 µM
CN(C)CCOc1ccc(-c2nc(-c3ccc4c(c3)CC/C4=N\O)c(-c3ccncc3)[nH]2)cc1	3.63 µM and 2.74 µM	7.37 µM and 24.4 µM
O=C(NNc1nc2cc(F)ccc2n2c(CN3CCCC3)ccc12)c1cnccn1	1.6 µM	6.9 µM
Nc1cc(-c2c[nH]c3ccc(F)cc23)nc2cc(-c3c[nH]c4ccc(F)cc34)nn12	2.01 µM	3.84 µM
COC(=O)CCC(=O)C(=O)OC	90800 µM	> 100000 µM
COc1ccc(CC(C)=C(c2ccc(OCCN3CCCC3)cc2)c2ccc(OCCN3CCCC3)cc2)cc1	0.777 µM	3.1 µM
Nc1ccc2c(c1)C(=O)C(=O)c1c-2nc2ccccn12	1.53 µM	3.11 µM
COc1cc(NS(C)(=O)=O)ccc1Nc1c2ccc([N+](=O)[O-])cc2nc2c(C)cccc12	0.246 µM	0.873 µM
Cn1cc(-c2ccc3c(Nc4cccc(NC(=O)Nc5cccc(F)c5)c4)ncnc3c2)cn1	0.107 µM	1.64 µM
FC(F)(F)Oc1cccc(-c2cnc3ccc(-c4ccncc4)nn23)c1	0.59 µM	3.77 µM
CCNC(=O)[C@@H]1CCCN2C(=O)CC[C@H](NC(=O)[C@H](Cc3ccc(OP(=O)(O)O)cc3)NC(C)=O)C(=O)N12	> 25 µM	> 25 µM

SMILES	GI50	TGI
OC(c1cccc(-n2ccc(C(F)(F)F)n2)c1)c1cnccc1NC1CCCCCC1 (configuration not stated)	1.64 µM	3.28 µM
CC(=O)N[C@@H](Cc1ccc(OP(=O)(O)O)cc1)C(=O)N[C@H]1CCC(=O)N2CCC[C@@H](C(=O)NCc3ccc(Cl)cc3)N2C1=O	> 25 µM	> 25 µM
Cc1ccc2c(c1)C(C)Cc1c(ncnc1-n1cnc3ccccc31)N2C (configuration not stated)	0.262 µM	23.2 µM
Cc1cccc(NC(=O)CCc2ccc(N3C(N)=NC(N)=NC3(C)C)cc2)c1	0.692 µM	> 51.4 µM
CCS(=O)(=O)N1CCC(C(C)n2c(C)c(C(=O)NCc3c(OC)cc(C)[nH]c3=O)c3ccccc32)CC1 (configuration not stated)	92 µM	> 100 µM
COc1cc(C(=O)/C=C/c2c(C)n([O-])c3ccc(C)cc3[n+]2=O)cc(OC)c1OC	2.59 µM	9.94 µM
C=C1C(=O)O[C@H]2[C@H]1CC/C(CNC(=O)Cc1c[nH]c3ccccc13)=C\CC[C@@]1(C)O[C@@H]21	0.795 µM	2.73 µM
Clc1ccc(CSC(Cn2ccnc2)c2ccc(Cl)cc2Cl)cc1 (configuration not stated)	1.39 µM	3.37 µM
COc1ccc2[nH]c(=O)c3c4ccccc4cn3c2c1	0.179 µM	1.36 µM
CC(C)[C@]12O[C@H]1[C@@H]1O[C@]13[C@]1(O[C@H]1C[C@H]1C4=C(CC[C@@]13C)C(=O)OC4)[C@@H]2O	0.0176 µM	0.0385 µM
CC12CCC3C(CCC4Cc5[nH]c6ccccc6c5CC43C)C1CCC2O (configuration not stated)	2.78 µM	> 100 µM
Nc1c(C(=O)c2cccc(CCCN3CCOCC3)c2)cnn1-c1ccc(F)cc1	> 20.1 µM	> 25 µM
CCSCC1CC(O)(c2ccccc2)C(c2ccccc2)C(c2ccc(Cl)cc2)O1 (configuration not stated)	1.7 µM	3.55 µM
C[C@@H]1COCCN1c1cc(C2([S@](C)(=N)=O)CC2)nc(-c2ccnc3[nH]ccc23)n1	3.12 µM and 4.14 µM	27.2 µM and > 10 µM
O=C(NC1CCN(Cc2ccccc2)CC1)c1cc(-c2ccncc2)nc2ccc(Cl)cc12	6.82 µM	37 µM
N#Cc1cnc2ccc(-c3cnc(N)nc3)cc2c1N1CCc2cc(F)c(Cl)cc21	0.38 µM	2.04 µM
COc1ccc2oc(=O)cc(C(c3ccc[nH]3)c3ccc[nH]3)c2c1	0.344 µM	3.34 µM
COc1cc2c(cc1O)CC[C@@H]1[C@@H]2CC[C@]2(C)[C@@H](NCCN(C)C)CC[C@@H]12	0.126 µM	0.499 µM

Reference: PubChem BioAssay (NCI)
